What all share (experiment): Greenhouse early post-emergence weed control trial
Common to all, as to assay type: in vivo

Assay [1] relates to Matricaria inodora (MATIN). As to conditions: Tripleurospermum inodorum, 480 h; visual weed control 20 DAA, scale 0-100, early post-emergence BBCH 10-11; g ai/ha: diflufenican 50, pyroxasulfone 25, metribuzin 50, combination 50 + 25 + 50; read-out: % Efficacy against various weeds, MATIN. The method, then:
(§1) The following data are the results of a greenhouse investigation in which the herbicide combination according to the present invention was tested against various monocotyledonous and dicotyledonous weeds after an early-post emergence application (BBCH 10-11).
(§2) For this early post-emergent trial seeds of the above mentioned species were sown in 7 cm jiffy pots containing standard soil (14.7% sand, 19.9% clay, 65.4% silt and 1.8% organic matter) covered with 0,5 cm depth of sandy soil and lightly irrigated from above. The pots were placed in a glasshouse (with conditions of 16 hour day and 8 hour night, 21° C. day and 12° C. night and 60% relative humidity) and irrigated from above to allow the seeds to germinate and grow. Once they had reached the required growth stage BBCH 10-11 the propagated plants were treated with the herbicides. The herbicides were applied in a spray volume of 300 l water/ha using a flat fan nozzle XR 8001 at a pressure of 1.8 bar. After the application and air drying the pots were placed back into the glasshouse and allowed to grow on. The pots were irrigated via flood irrigation as required for good plant growth.
(§3) Visual percent of weed control (4 replicates) was rated 20 days after herbicide applications (DAA) on a scale of 0-100. A rating of 0 is defined as no control and 100 as complete control.
(§4) According to Colby synergistic effects of herbicidal active ingredients are indicated if the measured efficacy is higher than the expected one calculated according to his formula for 3-way mixtures: E=(A+B+C)−(A×B+A×C+B×C)/100+(A×B×C)/10000

Assay [2] concerns Polygonum convolvulus (POLCO). Conditions: Fallopia convolvulus, 480 h; visual weed control 20 DAA, scale 0-100, early post-emergence BBCH 10-11; g ai/ha: diflufenican 50, pyroxasulfone 25, metribuzin 50, combination 50 + 25 + 50; read-out: % Efficacy against various weeds, POLCO. The method, then:
as §1, §2, §3, §4

For assay [3], the system named is Lamium purpureum (LAMPU). Conditions: 480 h, visual weed control 20 DAA, scale 0-100, early post-emergence BBCH 10-11, g ai/ha: diflufenican 50, pyroxasulfone 25, metribuzin 50, combination 50 + 25 + 50, read-out: % Efficacy against various weeds, LAMPU. The method, then:
as §1, §2, §3, §4

Assay [4] relates to Veronica persica (VERPE). Conditions: 480 h, visual weed control 20 DAA, scale 0-100, early post-emergence BBCH 10-11, g ai/ha: diflufenican 50, pyroxasulfone 25, metribuzin 50, combination 50 + 25 + 50, read-out: % Efficacy against various weeds, VERPE. The method, then: as §1, §2, §3, §4
Assay [5] concerns Pharbitis purpurea (PHBPU). Conditions: Ipomoea purpurea, 480 h; visual weed control 20 DAA, scale 0-100, early post-emergence BBCH 10-11; g ai/ha: diflufenican 50, pyroxasulfone 25, metribuzin 50, combination 50 + 25 + 50; read-out: % Efficacy against various weeds, PHBPU. The method, then: as §1, §2, §3, §4
Assay [6] deals with Lolium rigidum (LOLRI). Conditions: 480 h, visual weed control 20 DAA, scale 0-100, early post-emergence BBCH 10-11, g ai/ha: diflufenican 50, pyroxasulfone 25, metribuzin 50, combination 50 + 25 + 50, read-out: % Efficacy against various weeds, LOLRI. The method, then:
as §1, §2, §3, §4

For `O=C(Nc1ccc(F)cc1F)c1cccnc1Oc1cccc(C(F)(F)F)c1` [Diflufenican, diflufenican], the Emax in assay [1] worked out at 1%; in assay [2], 13%; in assay [3], 10%; in assay [4], 18%; in assay [5], 18%; in assay [6] it was 2%.
As for `Cn1nc(C(F)(F)F)c(CS(=O)(=O)C2=NOC(C)(C)C2)c1OC(F)F` [Pyroxasulfon, pyroxasulfone], the Emax in assay [1] was found to be 5%; in assay [2], 0%; in assay [3], 5%; in assay [4], 5%; in assay [5], 10%; in assay [6], 29%.
Consider `CSc1nnc(C(C)(C)C)c(=O)n1N` [Metribuzin, metribuzin], for which the Emax in assay [1] is 59%; in assay [2] it was 1%; in assay [3], 95%; in assay [4], 70%; in assay [5] it was 5%; in assay [6] it was 6%.

(Values after patent US10863742B2, “Herbicide combinations” (Bayer CropScience Aktiengesellschaft, priority 2016, dated 2020).)
